From US10570179B2, “Substituted urea depsipeptide analogs as activators of the CLPP endopeptidase” (priority 2016, dated 2020)
Values after ≈ are worked out from the molar mass of the structure shown. Read-outs that look alike come from different tables or passages of the source. Numbered stars: 1 amine (or outer) side, 2 acyl side, 3 side chain; on linkers, the order of the positions; unused ones are H or OH. Bridge positions count the residues as written; N and C are the ends. Square brackets hold non-standard residues; d marks the D form. Peptide text beside a SMILES is read from it. * marks the point of attachment. X5 = O=C([C@@H]1C[C@@H](OP(=O)(O)O)CN1[*:1])[*:2]; Piperazine(2S-CO,4-Me) = CN1CCN[C@H](C(=O)O)C1; Phe(3-Cl) = N[C@@H](Cc1cccc(Cl)c1)C(=O)O; Morpholine(3S-CO) = O=C(O)[C@@H]1COCCN1; Phe(3-Me) = Cc1cccc(C[C@H](N)C(=O)O)c1; X4 = O=C1CN([*:1])[C@H](C(=O)[*:2])CN1; NH(4-Cl-2-F-phenyl) = Fc1cc(Cl)ccc1N*; Pro(4R-Me) = C[C@H]1CN[C@H](C(=O)O)C1; X1 = O=C([C@@H]1CSCCN1[*:1])[*:2]; Hyp = O=C(O)[C@@H]1C[C@@H](O)CN1; NH(4-Et-phenyl) = CCc1ccc(N*)cc1; aThr = C[C@H](O)[C@H](N)C(=O)O; Pip = O=C(O)[C@@H]1CCCCN1; X3 = c1cc2c(cc1N*)OCCO2; CO = O=C([*:1])[*:2]; X2 = Fc1cc(N*)ccc1Cl

Assay: Solubility determination
Assay type: physicochemical
Conditions: for solubility kinetic at 10 min: 22 °C, aqueous buffer, kinetic from dmso stock
Procedure: Test compounds were synthesized and supplied by the Department of Chemical Biology and Therapeutics at St. Jude Children's Research Hospital (Memphis, Tenn.). LC-MS chromasolv grade acetonitrile (ACN) was purchased from Fisher Scientific (Loughborough, UK). LC-MS chromasolv grade formic acid was obtained from Sigma-Aldrich (St. Louis, Mo.). Milli-Q water as an ultrapure laboratory grade water was used in aqueous mobile phase.
Chromatographic separation was performed on an Acquity UPLC BEH C18 1.7 μm, 2.1×50 mm column (Waters Corporation, Milford, Mass.) using an Acquity ultra performance liquid chromatography system. The total flow rate was 0.9 mL/min. The sample injection volume was 10 μL. The UPLC column was maintained at 60° C. and the gradient program started at 90% A (0.1% formic acid in MilliQ H2O), changed to 70% A over 0.2 min, to 95% B (0.1% formic acid in ACN) over 1.4 minutes, held for 0.35 minutes, then to 90% A over 0.05 minutes.
Mass data was acquired with an Acquity SQD Mass Spectrometer. The mass spectrometer was operated in positive-ion mode with electrospray ionization. The conditions were as follows: capillary voltage 3.5 kV, cone voltage 30 V, source temperature 150° C., desolvation temperature 350° C., desolvation gas 500 L/hr, cone gas 25 L/hr. Data were acquired using Masslynx v. 4.1 and analyzed using the Quanlynx software suite. A full scan range from m/z=100-1000 in 0.2 s was used to acquire MS data. Both UV and Single ion recording mass spectrometry were used to determine the quantification of the samples.
Stock solutions were prepared by dissolving compounds into DMSO to yield a concentration of 10 mM. Stock solutions were stored at room temperature.
Calibration standards were made by adding stock solutions to DMSO for final concentrations of compounds at concentration of 100, 25, 6.25, 1.563, 0.391 and 0.098 μM.
Solubility test samples were made by adding stock solutions to 200 μL, of DPBS for final concentrations of compounds at 100 μM in a 96-well analytical plate (300 μL, maximum volume in each well). Samples were tested in triplicates. The plate was sealed, shaken at 600 rpm for 10 minutes, and then was centrifuged at 4000 rpm for 20 min at 22° C. 100 μL, of the supernatant was transferred to a new analytical 96-well plate and 10 μL, was injected onto the LCMS system.
Two calibration curves for solubility test samples were analyzed during the quantitation process. The linear regression of test compound peak areas was weighted by 1/x^2. […] Coefficient of determination (R^2) was used to evaluate the linearity of each calibration curve.

[1] = solubility in DPBS, 100 μM test samples, LCMS, read-out: LCMS

Structure (SMILES)	μsol (μM)	solubility kinetic at 10 min	solubility kinetic at 10 min [1]	μsol (μM) (solubility)
Cc1cccc(C[C@H](NC(=O)Nc2ccc3c(c2)OCCO3)C(=O)N[C@H]2COC(=O)[C@@H]3C[C@@H](C)CN3C(=O)[C@H](C)NC(=O)[C@@H]3CCCCN3C(=O)[C@@H]3CCCN3C2=O)c1 [Compound 22, (S)-2-(3-(2,3-DIHYDROBENZO[B][1,4]DIOXIN-6-YL)UREIDO)-N-((2R,6S,8AS,14AS,20S,23AS)-2,6-DIMETHYL-5,8,14,19,23-PENTAOXOOCTADECAHYDRO-1H,5H,14H,19H-PYRIDO[2,1-I]DIPYRROLO[2,1-C:2′,1′-L][1]OXA[4,7,10,13]TETRAAZACYCLOHEXADECIN-20-YL)-3-(M-TOLYL)PROPANAMIDE]	7.6 ± 0.3 µM	3.3 ± 0.2 µM (≈ 2.69 µg/mL)		
Cc1cccc(C[C@H](NC(=O)Nc2ccc3c(c2)OCCO3)C(=O)N[C@@H]2C(=O)N3C[C@H](O)C[C@H]3C(=O)N3CCOC[C@H]3C(=O)N[C@@H](C)C(=O)N3C[C@H](C)C[C@H]3C(=O)O[C@H]2C)c1 [Compound 27, (S)-2-(3-(2,3-DIHYDROBENZO[B][1,4]DIOXIN-6-YL)UREIDO)-N-((6AS,8R,12S,13S,15AS,17R,21S,23AS)-8-HYDROXY-13,17,21-TRIMETHYL-6,11,15,20,23-PENTAOXOOCTADECAHYDRO-6H,11H,15H-[1,4]OXAZINO[3,4-I]DIPYRROLO[2,1-C:2′,1′-L][1]OXA[4,7,10,13]TETRAAZACYCLOHEXADECIN-12-YL)-3-(M-TOLYL)PROPANAMIDE] ({X3-CO}-[Phe(3-Me)][aThr][Hyp][Morpholine(3S-CO)]A[Pro(4R-Me)]; ester 2-C)		45.6 ± 5.6 µM (≈ 38.7 µg/mL)		
Cc1ccc(NC(=O)N[C@@H](Cc2cccc(C)c2)C(=O)N[C@H]2COC(=O)[C@@H]3C[C@H](C)CN3C(=O)[C@H](C)NC(=O)[C@@H]3CCCCN3C(=O)[C@@H]3CCCN3C2=O)cc1 (stereo in doubt) [Compound 43, (S)—N-((2S,6S,8AS,14AS,20S,23AS)-2,6-DIMETHYL-5,8,14,19,23-PENTAOXOOCTADECAHYDRO-1H,5H,14H,19H-PYRIDO[2,1-I]DIPYRROLO[2,1-C:2′,1′-L][1]OXA[4,7,10,13]TETRAAZACYCLOHEXADECIN-20-YL)-3-(M-TOLYL)-2-(3-(P-TOLYL)UREIDO)PROPANAMIDE]			42.2 ± 0.9 µM (≈ 32.6 µg/mL)	49.8 ± 2.5 µM
C[C@@H]1C[C@H]2C(=O)O[C@@H](C)[C@H](NC(=O)[C@H](Cc3cccc(Cl)c3)NC(=O)Nc3ccc(Cl)cc3F)C(=O)N3CCC[C@H]3C(=O)N3CCN(C)C[C@H]3C(=O)N[C@@H](C)C(=O)N2C1 [Compound 33] ({NH(4-Cl-2-F-phenyl)-CO}-[Phe(3-Cl)][aThr]P[Piperazine(2S-CO,4-Me)]A[Pro(4R-Me)]; ester 2-C)	17.2 ± 7.2 µM	12.8 ± 2.8 µM (≈ 11 µg/mL)		
Cc1cccc(C[C@H](NC(=O)Nc2ccc(Cl)cc2F)C(=O)N[C@@H]2C(=O)N3C[C@H](O)C[C@H]3C(=O)N3CCSC[C@H]3C(=O)N[C@@H](C)C(=O)N3C[C@H](C)C[C@H]3C(=O)O[C@H]2C)c1 [Compound 41, (S)-2-(3-(4-CHLORO-2-FLUOROPHENYL)UREIDO)-N-((6AS,8R,12S,13S,15AS,17R,21S,23AR)-8-HYDROXY-13,17,21-TRIMETHYL-6,11,15,20,23-PENTAOXOOCTADECAHYDRO-6H,11H,15H-DIPYRROLO[2,1-C:2′,1′-L][1,4]THIAZINO[3,4-I][1]OXA[4,7,10,13]TETRAAZACYCLOHEXADECIN-12-YL)-3-(M-TOLYL)PROPANAMIDE] ({NH(4-Cl-2-F-phenyl)-CO}-[Phe(3-Me)][aThr][Hyp][X1]A[Pro(4R-Me)]; ester 2-C)	2.4 ± .40 µM	1.4 ± 0.4 µM (≈ 1.2 µg/mL)		
Cc1cccc(C[C@H](NC(=O)Nc2ccc(Cl)cc2F)C(=O)N[C@@H]2C(=O)N3CCC[C@H]3C(=O)N3CC(=O)NC[C@H]3C(=O)N[C@@H](C)C(=O)N3C[C@H](C)C[C@H]3C(=O)O[C@H]2C)c1 [Compound 20, (S)-2-(3-(4-CHLORO-2-FLUOROPHENYL)UREIDO)-3-(M-TOLYL)-N-((6AS,12S,13S,15AS,17R,21S,23AS)-13,17,21-TRIMETHYL-3,6,11,15,20,23-HEXAOXOOCTADECAHYDRO-2H,6H,11H,15H-PYRAZINO[2,1-I]DIPYRROLO[2,1-C:2′,1′-L][1]OXA[4,7,10,13]TETRAAZACYCLOHEXADECIN-12-YL)PROPANAMIDE] ({NH(4-Cl-2-F-phenyl)-CO}-[Phe(3-Me)][aThr]P[X4]A[Pro(4R-Me)]; ester 2-C)	29.9 ± 1.5 µM	34.4 ± 1.1 µM (≈ 28.9 µg/mL)		
Cc1ccc(NC(=O)N[C@@H](Cc2cccc(C)c2)C(=O)N[C@H]2COC(=O)[C@@H]3CCCN3C(=O)[C@H](C)NC(=O)[C@@H]3CCCCN3C(=O)[C@@H]3C[C@@H](O)CN3C2=O)cc1 [Compound 49, (S)—N-((6S,8AS,14AS,16R,20S,23AS)-16-HYDROXY-6-METHYL-5,8,14,19,23-PENTAOXOOCTADECAHYDRO-1H,5H,14H,19H-PYRIDO[2,1-I]DIPYRROLO[2,1-C:2′,1′-L][1]OXA[4,7,10,13]TETRAAZACYCLOHEXADECIN-20-YL)-3-(M-TOLYL)-2-(3-(P-TOLYL)UREIDO)PROPANAMIDE]			17 ± 6.97 µM (≈ 13.1 µg/mL)	8.5 ± .51 µM
Cc1cccc(C[C@H](NC(=O)Nc2ccc(Cl)c(F)c2)C(=O)N[C@@H]2C(=O)N3CCC[C@H]3C(=O)N3CCCC[C@H]3C(=O)N[C@@H](C)C(=O)N3C[C@H](C)C[C@H]3C(=O)O[C@H]2C)c1 [Compound 35, (S)-2-(3-(4-CHLORO-3-FLUOROPHENYL)UREIDO)-3-(M-TOLYL)-N-((2R,6S,8AS,14AS,20S,21S,23AS)-2,6,21-TRIMETHYL-5,8,14,19,23-PENTAOXOOCTADECAHYDRO-1H,5H,14H,19H-PYRIDO[2,1-I]DIPYRROLO[2,1-C:2′,1′-L][1]OXA[4,7,10,13]TETRAAZACYCLOHEXADECIN-20-YL)PROPANAMIDE] ({X2-CO}-[Phe(3-Me)][aThr]P[Pip]A[Pro(4R-Me)]; ester 2-C)	0.9 ± .95 µM	0.002 ± 0.002 µM (≈ 0.00165 µg/mL)		
CCc1ccc(NC(=O)N[C@@H](Cc2cccc(C)c2)C(=O)N[C@@H]2C(=O)N3C[C@H](O)C[C@H]3C(=O)N3CCCC[C@H]3C(=O)N[C@@H](C)C(=O)N3C[C@H](C)C[C@H]3C(=O)O[C@H]2C)cc1 [Compound 25, (S)-2-(3-(4-ETHYLPHENYL)UREIDO)-N-((2R,6S,8AS,14AS,16R,20S,21S,23AS)-16-HYDROXY-2,6,21-TRIMETHYL-5,8,14,19,23-PENTAOXOOCTADECAHYDRO-1H,5H,14H,19H-PYRIDO[2,1-I]DIPYRROLO[2,1-C:2′,1′-L][1]OXA[4,7,10,13]TETRAAZACYCLOHEXADECIN-20-YL)-3-(M-TOLYL)PROPANAMIDE] ({NH(4-Et-phenyl)-CO}-[Phe(3-Me)][aThr][Hyp][Pip]A[Pro(4R-Me)]; ester 2-C)	9.0 ± 0.3 µM	18.6 ± 1.17 µM (≈ 15.2 µg/mL)		
Cc1cccc(C[C@H](NC(=O)Nc2ccc(Cl)cc2F)C(=O)N[C@@H]2C(=O)N3C[C@H](OP(=O)(O)O)C[C@H]3C(=O)N3CCCC[C@H]3C(=O)N[C@@H](C)C(=O)N3C[C@H](C)C[C@H]3C(=O)O[C@H]2C)c1 [Compound 29, (2R,6S,8AS,14AS,16R,20S,21S,23AS)-20-((S)-2-(3-(4-CHLORO-2-FLUOROPHENYL)UREIDO)-3-(M-TOLYL)PROPANAMIDO)-2,6,21-TRIMETHYL-5,8,14,19,23-PENTAOXOOCTADECAHYDRO-1H,5H,14H,19H-PYRIDO[2,1-I]DIPYRROLO[2,1-C:2′,1′-L][1]OXA[4,7,10,13]TETRAAZACYCLOHEXADECIN-16-YL DIHYDROGEN PHOSPHATE] ({NH(4-Cl-2-F-phenyl)-CO}-[Phe(3-Me)][aThr][X5][Pip]A[Pro(4R-Me)]; ester 2-C)			66.6 ± 6.6 µM	58.7 ± 8.7 µM
Cc1cccc(C[C@H](NC(=O)Nc2ccc3c(c2)OCCO3)C(=O)N[C@@H]2C(=O)N3C[C@H](O)C[C@H]3C(=O)N3CCCC[C@H]3C(=O)N[C@@H](C)C(=O)N3C[C@H](C)C[C@H]3C(=O)O[C@H]2C)c1 [Compound 28, (S)-2-(3-(2,3-DIHYDROBENZO[B][1,4]DIOXIN-6-YL)UREIDO)-N-((2R,6S,8AS,14AS,16R,20S,21S,23AS)-16-HYDROXY-2,6,21-TRIMETHYL-5,8,14,19,23-PENTAOXOOCTADECAHYDRO-1H,5H,14H,19H-PYRIDO[2,1-I]DIPYRROLO[2,1-C:2′,1′-L][1]OXA[4,7,10,13]TETRAAZACYCLOHEXADECIN-20-YL)-3-(M-TOLYL)PROPANAMIDE] ({X3-CO}-[Phe(3-Me)][aThr][Hyp][Pip]A[Pro(4R-Me)]; ester 2-C)	30.2 ± 0.2 µM	34.7 ± 4.7 µM (≈ 29.4 µg/mL)		
